Measured values reported in patent US20230060820A1, “OCTENIDINE SALT ANTIMICROBIAL MEDICAL ARTICLES” (3M INNOVATIVE PROPERTIES COMPANY, priority 2019, published 2023).
Counter-ions that a name gives are not always drawn. Like-named read-outs stand apart in the source and are kept apart here.

Tests used:
[1] = cited from earlier work; for Solubility: previous reports
[2] = Solubilization of octenidine hydrochloride in solvents (homogeneous solution); assay type: physicochemical; details: for Homogeneous solution: 10% (w/w), room temperature 20-25° C.
Experimental: Previous reports have shown that octenidine hydrochloride is soluble in both propylene glycol and ethylhexylglycerine, both of which are diol solvents. Hydrogen-bonding solvents with different functionalities were tested for their ability to solvate octenidine hydrochloride. Each solvent was combined with octenidine hydrochloride at 10% (w/w) with mixing at room temperature, i.e., 20-25° C. In some cases, sonication and/or heat were added to hasten dissolution.

[3] = higher than chlorhexidine; cited from earlier work

Row | SMILES | Homogenous solution formation ([1]; in glycol fatty monoesters, known) | Homogeneous solution ([2]; in 2-octyldodecanol) | Homogeneous solution ([2]; in glycerol monocaprylate) | Homogeneous solution ([2]; in glycerol monoisostearate) | Solubility ([2]; in glycol fatty monoesters) | Homogeneous solution ([2]; in lauramide diethanolamine) | Homogeneous solution ([2]; in methoxyisopropanol) | Homogeneous solution ([2]; in propylene glycol dicaprylate/caprate) | Homogeneous solution ([2]; in propylene glycol monoheptanoate) | Homogeneous solution ([2]; in propylene glycol monolaurate) | Homogeneous solution ([2]; in propylene glycol) | Solubility ([2]; in the glycol fatty diester) | Solubility ([2]; in the monohydric alcohol) | Antimicrobial efficacy relative to chlorhexidine [3] | Solubility ([1]; in ethylhexylglycerine) | Solubility ([1]; in propylene glycol)
1 | N=C(NCCCCCCNC(=N)NC(=N)Nc1ccc(Cl)cc1)NC(=N)Nc1ccc(Cl)cc1.O=C(O)[C@H](O)[C@@H](O)[C@H](O)[C@H](O)CO.O=C(O)[C@H](O)[C@@H](O)[C@H](O)[C@H](O)CO [chlorhexidine gluconate, Chlorhexidine digluconate] | do not form homogenous solutions |  |  |  |  |  |  |  |  |  |  |  |  |  |  | 
2 | CCCCCCCCN=c1ccn(CCCCCCCCCCn2ccc(=NCCCCCCCC)cc2)cc1 [octenidine hydrochloride, Octenidine hydrochloride] |  | No | Yes | Yes | soluble | Yes | Yes | No | Yes | Yes | Yes | insoluble | insoluble | 3-10 times | soluble | soluble
